Key:
Format in all cases: in vivo
[1] = system: redroot pigweed (Amaranthus retroflexus, AMARE); experiment: Pre-emerge test, greenhouse herbicide activity screening; details: phytotoxicity rating 0-100, 14 days after application
How it was run: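 Compounds in acetone were track-sprayed at 15-1000 g ai/ha (187 l/ha) on sandy loam pots: pre-emerge one day after seeding, post-emerge at 2-3 leaf stage with 0.25% v/v non-ionic surfactant. Phytotoxicity was rated 14 days later on a 0 (no damage) to 100 (complete death) scale.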

[2] = system: barnyardgrass (Echinochloa crus-galli, ECHCG); experiment: as above; details: phytotoxicity rating 0-100, 14 days after application
How it was run: (§1)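 Rating: 0–100 visual injury, 14 DAA. Application: acetone, 187 l/ha, 15–1000 g ai/ha, flat-fan track sprayer with nozzle 40–45 cm above soil or canopy. Post-emerge runs used 0.25% v/v surfactant on 2–3 leaf plants.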

[3] = system: green foxtail (Setaria viridis, SETVI); experiment: as above; details: phytotoxicity rating 0-100, 14 days after application
How it was run: as §1

[4] = system: ivyleaf morningglory (Ipomoea hederacea, IPOHE); experiment: as above; details: phytotoxicity rating 0-100, 14 days after application
How it was run: as §1

[5] = system: johnsongrass (Sorghum halepense, SORHA); experiment: as above; details: phytotoxicity rating 0-100, 14 days after application
How it was run: as §1

[6] = system: lambsquarters (Chenopodium album, CHEAL); experiment: as above; details: phytotoxicity rating 0-100, 14 days after application
How it was run: as §1

[7] = system: large crabgrass (Digitaria sanguinalis, DIGSA); experiment: as above; details: phytotoxicity rating 0-100, 14 days after application
How it was run: as §1

[8] = system: sicklepod (Cassia obtusifolia, CASOB); experiment: as above; details: phytotoxicity rating 0-100, 14 days after application
How it was run: as §1

[9] = system: velvetleaf (Abutilon theophrasti, ABUTH); experiment: as above; details: phytotoxicity rating 0-100, 14 days after application
How it was run: as §1

[10] = system: field corn (Zea mays L., var. Dekalb 535, CORN); experiment: Pre-emerge test, crop safety; details: crop damage rating 0-100, 14 days after application
How it was run: (§2)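 Sandy loam pots; pre-emerge: sown 1 d pre-spray, surface-watered after, then bottom-watered. Post-emerge: sown 8–21 d before, 2–3 leaf stage, + 0.25% v/v NIS, bottom-watered. Acetone, 187 l/ha track spray, 15–1000 g ai/ha. 0–100 injury score, day 14.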

[11] = system: upland rice (Oryza sp., var. Tebonnet, RICE); experiment: Pre-emerge test, crop safety; details: crop damage rating 0-100, 14 days after application
How it was run: as §2

[12] = system: barnyardgrass (Echinochloa crus-galli, ECHCG); experiment: Post-emerge test, greenhouse herbicide activity screening; details: post-emerge, 14 days after application, rating scale 0-100
How it was run: (§3)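 Applied at 15–1000 g ai/ha from acetone in 187 l/ha spray volume. Post-emergence applications included 0.25% v/v non-ionic surfactant and reached plants sown 8–21 days before. Pre-emergence applications were incorporated by surface watering. Efficacy or crop damage was rated on a 0–100 scale after 14 days.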

[13] = system: green foxtail (Setaria viridis, SETVI); experiment: as above; details: post-emerge, 14 days after application, rating scale 0-100
How it was run: as §3

[14] = system: ivyleaf morningglory (Ipomoea hederacea, IPOHE); experiment: as above; details: post-emerge, 14 days after application, rating scale 0-100
How it was run: as §3

[15] = system: johnsongrass (Sorghum halepense, SORHA); experiment: as above; details: post-emerge, 14 days after application, rating scale 0-100
How it was run: as §3

[16] = system: lambsquarters (Chenopodium album, CHEAL); experiment: as above; details: post-emerge, 14 days after application, rating scale 0-100
How it was run: as §3

[17] = system: large crabgrass (Digitaria sanguinalis, DIGSA); experiment: as above; details: post-emerge, 14 days after application, rating scale 0-100
How it was run: as §3

[18] = system: redroot pigweed (Amaranthus retroflexus, AMARE); experiment: as above; details: post-emerge, 14 days after application
How it was run: as §3

[19] = system: sicklepod (Cassia obtusifolia, CASOB); experiment: as above; details: post-emerge, 14 days after application, rating scale 0-100
How it was run: as §3

[20] = system: velvetleaf (Abutilon theophrasti, ABUTH); experiment: as above; details: post-emerge, 14 days after application, rating scale 0-100
How it was run: as §3

[21] = system: field corn (Zea mays L., var. Dekalb 535, CORN); experiment: Post-emerge test, crop safety; details: post-emerge, 14 days after application, rating scale 0-100
How it was run: (§4)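 Plants grown in 10 cm pots of sandy loam mix received acetone-dissolved compounds through a moving flat-fan nozzle. Doses ranged from 15 to 1000 g ai/ha. Pre-emerge pots were seeded one day earlier, post-emerge pots 8–21 days earlier. Fourteen days on, each pot was graded 0–100 for damage.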

[22] = system: upland rice (Oryza sp., var. Tebonnet, RICE); experiment: Post-emerge test, crop safety; details: post-emerge, 14 days after application, rating scale 0-100
How it was run: as §4

[23] = 63 g ai/ha, rating scale 0-100 (0 no damage, 100 complete death)
[24] = 250 g ai/ha, rating scale 0-100

## Cn1c(C(F)(F)F)cc(=O)n(-c2c(F)cc(Cl)c(Oc3ncccc3[N+](=O)[O-])c2NC(=O)c2ccc3ccccc3c2)c1=O [2-199]
[1]; 63 g ai/ha
  Pre-emerge Herbicidal Activity AMARE: 100
[1]; 250 g ai/ha
  Pre-emerge Herbicidal Activity AMARE: 100
[2]; 63 g ai/ha
  Pre-emerge Herbicidal Activity ECHCG: 99
[2]; 250 g ai/ha
  Pre-emerge Herbicidal Activity ECHCG: 100
[3]; 63 g ai/ha
  Pre-emerge Herbicidal Activity SETVI: 100
[3]; 250 g ai/ha
  Pre-emerge Herbicidal Activity SETVI: 100
[4]; 63 g ai/ha
  Pre-emerge Herbicidal Activity IPOHE: 100
[4]; 250 g ai/ha
  Pre-emerge Herbicidal Activity IPOHE: 100
[5]; 63 g ai/ha
  Pre-emerge Herbicidal Activity SORHA: 100
[5]; 250 g ai/ha
  Pre-emerge Herbicidal Activity SORHA: 100
[6]; 63 g ai/ha
  Pre-emerge Herbicidal Activity CHEAL: 100
[6]; 250 g ai/ha
  Pre-emerge Herbicidal Activity CHEAL: 100
[7]; 63 g ai/ha
  Pre-emerge Herbicidal Activity DIGSA: 100
[7]; 250 g ai/ha
  Pre-emerge Herbicidal Activity DIGSA: 100
[8]; 63 g ai/ha
  Pre-emerge Herbicidal Activity CASOB: 100
[8]; 250 g ai/ha
  Pre-emerge Herbicidal Activity CASOB: 100
[9]; 63 g ai/ha
  Pre-emerge Herbicidal Activity ABUTH: 100
[9]; 250 g ai/ha
  Pre-emerge Herbicidal Activity ABUTH: 100
[10]; 63 g ai/ha
  Pre-emerge Herbicidal Activity CORN: 95
[10]; 250 g ai/ha
  Pre-emerge Herbicidal Activity CORN: 100
[11]; 63 g ai/ha
  Pre-emerge Herbicidal Activity RICE: 99
[11]; 250 g ai/ha
  Pre-emerge Herbicidal Activity RICE: 100
[12]; 63 g ai/ha
  phytotoxicity rating ECHCG: 60
[12]; 250 g ai/ha
  phytotoxicity rating ECHCG: 100
[13]; 63 g ai/ha
  phytotoxicity rating SETVI: 50
[13]; 250 g ai/ha
  phytotoxicity rating SETVI: 90
[14]; 63 g ai/ha
  phytotoxicity rating IPOHE: 100
[14]; 250 g ai/ha
  phytotoxicity rating IPOHE: 100
[15]; 63 g ai/ha
  phytotoxicity rating SORHA: 40
[15]; 250 g ai/ha
  phytotoxicity rating SORHA: 95
[16]; 63 g ai/ha
  phytotoxicity rating CHEAL: 100
[16]; 250 g ai/ha
  phytotoxicity rating CHEAL: 100
[17]; 63 g ai/ha
  phytotoxicity rating DIGSA: 30
[17]; 250 g ai/ha
  phytotoxicity rating DIGSA: 95
[18]; [23]
  phytotoxicity rating AMARE: 95
[18]; [24]
  phytotoxicity rating AMARE: 100
[19]; 63 g ai/ha
  phytotoxicity rating CASOB: 100
[19]; 250 g ai/ha
  phytotoxicity rating CASOB: 100
[20]; 63 g ai/ha
  phytotoxicity rating ABUTH: 100
[20]; 250 g ai/ha
  phytotoxicity rating ABUTH: 100
[21]; 63 g ai/ha
  phytotoxicity rating CORN (crop damage): 30
[21]; 250 g ai/ha
  phytotoxicity rating CORN (crop damage): 90
[22]; 63 g ai/ha
  phytotoxicity rating RICE (crop damage): 80
[22]; 250 g ai/ha
  phytotoxicity rating RICE (crop damage): 90

## Cn1c(C(F)(F)F)cc(=O)n(-c2ccc(OC(F)(F)F)cc2NC(=O)c2ccc3ccccc3c2)c1=O [2-203]
[1]; 63 g ai/ha
  Pre-emerge Herbicidal Activity AMARE: 70
[1]; 250 g ai/ha
  Pre-emerge Herbicidal Activity AMARE: 100
[2]; 63 g ai/ha
  Pre-emerge Herbicidal Activity ECHCG: 0
[2]; 250 g ai/ha
  Pre-emerge Herbicidal Activity ECHCG: 80
[3]; 63 g ai/ha
  Pre-emerge Herbicidal Activity SETVI: 20
[3]; 250 g ai/ha
  Pre-emerge Herbicidal Activity SETVI: 70
[4]; 63 g ai/ha
  Pre-emerge Herbicidal Activity IPOHE: 10
[4]; 250 g ai/ha
  Pre-emerge Herbicidal Activity IPOHE: 70
[5]; 63 g ai/ha
  Pre-emerge Herbicidal Activity SORHA: 0
[5]; 250 g ai/ha
  Pre-emerge Herbicidal Activity SORHA: 40
[6]; 63 g ai/ha
  Pre-emerge Herbicidal Activity CHEAL: 100
[6]; 250 g ai/ha
  Pre-emerge Herbicidal Activity CHEAL: 100
[7]; 63 g ai/ha
  Pre-emerge Herbicidal Activity DIGSA: 60
[7]; 250 g ai/ha
  Pre-emerge Herbicidal Activity DIGSA: 90
[8]; 63 g ai/ha
  Pre-emerge Herbicidal Activity CASOB: 30
[8]; 250 g ai/ha
  Pre-emerge Herbicidal Activity CASOB: 90
[9]; 63 g ai/ha
  Pre-emerge Herbicidal Activity ABUTH: 75
[9]; 250 g ai/ha
  Pre-emerge Herbicidal Activity ABUTH: 100
[10]; 63 g ai/ha
  Pre-emerge Herbicidal Activity CORN: 0
[10]; 250 g ai/ha
  Pre-emerge Herbicidal Activity CORN: 0
[11]; 63 g ai/ha
  Pre-emerge Herbicidal Activity RICE: 10
[11]; 250 g ai/ha
  Pre-emerge Herbicidal Activity RICE: 20
[12]; 63 g ai/ha
  phytotoxicity rating ECHCG: 10
[12]; 250 g ai/ha
  phytotoxicity rating ECHCG: 30
[13]; 63 g ai/ha
  phytotoxicity rating SETVI: 20
[13]; 250 g ai/ha
  phytotoxicity rating SETVI: 30
[14]; 63 g ai/ha
  phytotoxicity rating IPOHE: 60
[14]; 250 g ai/ha
  phytotoxicity rating IPOHE: 95
[15]; 63 g ai/ha
  phytotoxicity rating SORHA: 10
[15]; 250 g ai/ha
  phytotoxicity rating SORHA: 20
[16]; 63 g ai/ha
  phytotoxicity rating CHEAL: 100
[16]; 250 g ai/ha
  phytotoxicity rating CHEAL: 100
[17]; 63 g ai/ha
  phytotoxicity rating DIGSA: 10
[17]; 250 g ai/ha
  phytotoxicity rating DIGSA: 30
[18]; [23]
  phytotoxicity rating AMARE: 100
[18]; [24]
  phytotoxicity rating AMARE: 100
[19]; 63 g ai/ha
  phytotoxicity rating CASOB: 100
[19]; 250 g ai/ha
  phytotoxicity rating CASOB: 100
[20]; 63 g ai/ha
  phytotoxicity rating ABUTH: 100
[20]; 250 g ai/ha
  phytotoxicity rating ABUTH: 100
[21]; 63 g ai/ha
  phytotoxicity rating CORN (crop damage): 10
[21]; 250 g ai/ha
  phytotoxicity rating CORN (crop damage): 10
[22]; 63 g ai/ha
  phytotoxicity rating RICE (crop damage): 25
[22]; 250 g ai/ha
  phytotoxicity rating RICE (crop damage): 30
